Data taken from US6566512B1, “ARV1, a protein involved in sterol uptake and sterol homeostasis in the budding yeast, S-cerevisiae, and a functional human ARV1” (The Trustees of Columbia University in the City of New York, priority 2000, dated 2003).

Test system: arv1D cells
Test: Polyene (nystatin) sensitivity of arv1 deletion yeast, growth on plates
Format: cell-based, Saccharomyces cerevisiae
Details: for polyene sensitivity of yeast strains deleted for the ARV1 gene (arv1Δ): concentration not given
Description: FIGS. 1A-1C arv1 mutant phenotypes. FIG. 1A, Temperature and nystatin sensitivity. 5-fold dilutions of cells were grown as indicated for three days on YEPD +/−5 μg/ml nystatin (10 mg/ml in propylene glycol). FIG. 1B, Characterization of sterol levels. Cells were labeled with [^3H]acetate and lipids extracted and analyzed by TLC. Data from three independent assays of two strains of each genotype is expressed as mean ratio over wild-type (±SEM; statistical significance by paired t-tests, *p<0.05 or **p<0.01 compared to wild-type). Hatched bars wild-type, gray bars=arv1D. FIG. 1C, Subcellular sterol accumulation. Cell membrane preparations were subjected to subcellular fractionation. Lipid composition is presented as ratio of [^3H]acetate in sterol and [^14C]oleate in phospholipids (top panels). Hatched bars=wild-type, gray bars=arv1D. Note scale differences between the upper panels. Fractions were characterized with specific antibodies against the plasma membrane ATPase (Pma1p, provided by Amy Chang), and 100 kDa subunit of integral vacuolar membrane H^+ATPase (Vph1p, Molecular Probes). Bottom panels show densitometry analysis of western blots expressed as percentage of total arbitrary units (Pma1p; closed boxes, Vph1p; open triangles). The integral ER membrane protein, dolichol phosphate mannose synthase cofractionated with Vph1p.
Mutations in sterol trafficking genes may alter membrane sterol levels. arv1D cells are sensitive to nystatin (FIG. 1a), a polyene antibiotic that disrupts membranes in part by interaction with sterols^10. Nystatin partitioning into membranes is sensitive to both sterol organization and levels^10. […] Iodine staining of sterol mass following extraction and thin layer chromatography (TLC) analysis reflected these differences (not shown).

For `C[C@@H]1[C@H](O)[C@@H](C)/C=C/C=C/C=C/C=C/C=C/C=C/C=C/[C@H](O[C@@H]2O[C@H](C)[C@@H](O)[C@H](N)[C@@H]2O)C[C@@H]2O[C@](O)(C[C@@H](O)C[C@@H](O)[C@H](O)CC[C@@H](O)C[C@@H](O)CC(=O)O[C@H]1C)C[C@H](O)[C@H]2C(=O)O` [amphotericin B], the “polyene sensitivity of yeast strains deleted for the ARV1 gene (arv1Δ)” value (“polyene sensitivity … (arv1Δ)” below) was “sensitive”.
With `C[C@@H]1[C@H](O)[C@@H](C)/C=C/C=C/CC/C=C/C=C/C=C/C=C/C(O[C@H]2O[C@H](C)[C@@H](O)[C@H](N)[C@@H]2O)CC2O[C@](O)(CC(O)C(O)CCC(O)CC(O)CC(O)CC(=O)O[C@H]1C)CC(O)C2C(=O)O` (stereo partly shown) [nystatin] the “sensitivity of arv1D cells to nystatin (growth, FIG. 1a)” value (5-fold dilutions of cells grown three days on YEPD +/- 5 μg/ml nystatin, compared with wild-type) was “sensitive” and the “polyene sensitivity … (arv1Δ)” value was “sensitive”.
In the case of `CCCCC[C@@H](O)[C@H]1C(=O)O[C@H](C)[C@@H](O)/C=C/C=C/C=C/C=C/C=C(\C)[C@@H](O)C[C@H](O)C[C@H](O)C[C@H](O)C[C@H](O)C[C@H](O)C[C@@H]1O` [filipin], the “polyene sensitivity … (arv1Δ)” value is reported as “sensitive”.
